Values quoted from earlier work in patent CN114831954A, “一种左氧氟沙星片” (priority 2022, dated 2022).

How the values were obtained:
[1] = in vivo, po
[2] = background statement
[3] = tested on: Gram-positive and Gram-negative bacteria [革兰氏阳性菌和阴性菌]; details: background statement

CC1COc2c(N3CCN(C)CC3)c(F)cc3c(=O)c(C(=O)O)cn1c23 (stereo not shown) [氧氟沙星]
gastrointestinal adverse reactions [1]: 有胃肠不良反应 | biological half-life [2]: ~6 h | antibacterial effect ([3]; Gram-positive and Gram-negative bacteria): 对革兰氏阳性菌和阴性菌均有光谱的效果 | concentration dependence of antibacterial effect [3]: 具有明显的浓度依赖性
